Numbers after ± are expanded uncertainties.
Conditions: 101.33 kPa, Liquid; for viscosity: Capillary tube (Ostwald / Ubbelohde) method; for mass density: Vibrating tube method

viscosity (283.15 K) [mPa·s]	mass density (283.15 K) [kg/m3]	viscosity (293.15 K) [mPa·s]	mass density (293.15 K) [kg/m3]	viscosity (298.15 K) [mPa·s]	mass density (298.15 K) [kg/m3]	viscosity (303.15 K) [mPa·s]	mass density (303.15 K) [kg/m3]	viscosity (313.15 K) [mPa·s]	mass density (313.15 K) [kg/m3]	SMILES
0.493 ± 0.004	877.72 ± 0.12	0.438 ± 0.003	866.71 ± 0.12	0.414 ± 0.003	861.2 ± 0.12	0.392 ± 0.003	855.7 ± 0.13	0.353 ± 0.003	844.69 ± 0.13	COCCOC [1,2-dimethoxyethane]
1.459 ± 0.009	797.97 ± 0.12	1.209 ± 0.007	789.43 ± 0.12	1.098 ± 0.007	785.16 ± 0.12	0.998 ± 0.006	780.88 ± 0.12	0.831 ± 0.005	772.34 ± 0.13	CCO [ethanol]
13.52 ± 0.07	832.11 ± 0.13	9.167 ± 0.05	825.13 ± 0.13	7.618 ± 0.042	821.63 ± 0.14	6.395 ± 0.036	818.14 ± 0.14	4.628 ± 0.028	811.15 ± 0.14	CCCCCCCCO [octan-1-ol]
5.463 ± 0.04	821.95 ± 0.24	4.037 ± 0.03	814.6 ± 0.24	3.49 ± 0.026	810.93 ± 0.24	3.032 ± 0.023	807.25 ± 0.24	2.319 ± 0.018	799.9 ± 0.24	CCCCCO [pentan-1-ol]
